Results taken from ChEMBL document CHEMBL3638792, “Indazoles” (2014).

Columns and labels:
[1] = target: Tyrosine-protein kinase JAK1 (Homo sapiens, UniProt P23458); test: High ATP Caliper Endpoint Assay: JAK1 enzyme (Invitrogen) stock solution is made up at 5.2 uM in sterile water. JAK1 enzyme stock is diluted to 20 nM in assay buffer (10 mM HEPES free acid pH 7.5, 10 mM HEPES free base pH 7.5, 10 mM MgCL2, 0.0005% Tween-20, 0.01% BSA) containing 2 mM DTT (all supplied by Sigma) with the addition of one protease tablet per 25 mls buffer (Roche). ATP is made up at 10 mM stock in sterile water and diluted to 5 mM in assay buffer. Peptide H236 (Caliper Life Sciences) is made up at 1.5 mM in 100% DMSO and diluted to 3 uM in assay buffer. Stop buffer comprises 140 mM HEPES, 22.5 mM EDTA (Sigma) and 0.15% coating reagent (Caliper Life Sciences).Assays are performed in Greiner polypropylene 384 well plates. Following compound preparation within the plate 10 ul of enzyme in assay buffer containing DTT is added using a Multidrop Micro. Final assay concentration of enzyme is 10 nM. Compound and enzyme are pre-incubated for 30 minutes at room temperature.
[2] = target: T1, Tyrosine-protein kinase JAK3 (Homo sapiens, UniProt P52333); test: High ATP Caliper Endpoint Assay: JAK3 enzyme (Invitrogen) stock solution is made up at 4.1 uM in sterile water. JAK3 enzyme stock is diluted to 2 nM in assay buffer (10 mM HEPES free acid pH 7.5, 10 mM HEPES free base pH 7.5, 10 mM MgCL2, 0.0005% Tween-20, 0.01% BSA) containing 2 mM DTT (all supplied by Sigma). ATP is made up at 10 mM stock in sterile water and diluted to 800 uM in assay buffer. …
T1 sequence (P52333 whole entry): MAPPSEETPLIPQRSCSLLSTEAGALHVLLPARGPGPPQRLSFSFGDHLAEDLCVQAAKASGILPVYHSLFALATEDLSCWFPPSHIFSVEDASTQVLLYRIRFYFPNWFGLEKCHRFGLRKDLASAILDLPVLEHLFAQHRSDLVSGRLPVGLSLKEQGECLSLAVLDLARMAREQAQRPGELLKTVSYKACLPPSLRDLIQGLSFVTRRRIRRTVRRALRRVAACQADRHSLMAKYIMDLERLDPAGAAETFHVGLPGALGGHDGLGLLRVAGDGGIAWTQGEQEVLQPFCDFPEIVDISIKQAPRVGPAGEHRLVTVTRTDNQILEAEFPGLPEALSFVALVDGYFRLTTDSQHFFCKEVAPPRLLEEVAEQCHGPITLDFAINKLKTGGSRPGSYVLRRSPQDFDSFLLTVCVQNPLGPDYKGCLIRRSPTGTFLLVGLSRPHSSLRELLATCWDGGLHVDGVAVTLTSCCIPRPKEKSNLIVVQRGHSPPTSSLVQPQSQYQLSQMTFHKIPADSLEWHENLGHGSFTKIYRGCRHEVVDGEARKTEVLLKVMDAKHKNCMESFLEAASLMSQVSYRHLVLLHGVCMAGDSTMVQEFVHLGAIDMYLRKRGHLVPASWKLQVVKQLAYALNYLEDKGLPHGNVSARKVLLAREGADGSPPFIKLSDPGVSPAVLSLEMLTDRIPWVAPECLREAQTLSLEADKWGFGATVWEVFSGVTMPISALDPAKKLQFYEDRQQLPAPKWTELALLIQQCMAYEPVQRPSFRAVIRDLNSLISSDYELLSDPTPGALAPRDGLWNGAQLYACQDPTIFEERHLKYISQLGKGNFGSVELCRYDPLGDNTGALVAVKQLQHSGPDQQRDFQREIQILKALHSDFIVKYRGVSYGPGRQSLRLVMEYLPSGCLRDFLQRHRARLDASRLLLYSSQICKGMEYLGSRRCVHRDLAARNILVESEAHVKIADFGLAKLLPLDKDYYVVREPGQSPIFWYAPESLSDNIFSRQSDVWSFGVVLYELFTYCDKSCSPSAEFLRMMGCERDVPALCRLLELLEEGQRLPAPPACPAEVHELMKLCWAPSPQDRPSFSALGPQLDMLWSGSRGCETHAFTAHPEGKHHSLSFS

Chain of Tyrosine-protein kinase JAK1 (P23458 whole entry): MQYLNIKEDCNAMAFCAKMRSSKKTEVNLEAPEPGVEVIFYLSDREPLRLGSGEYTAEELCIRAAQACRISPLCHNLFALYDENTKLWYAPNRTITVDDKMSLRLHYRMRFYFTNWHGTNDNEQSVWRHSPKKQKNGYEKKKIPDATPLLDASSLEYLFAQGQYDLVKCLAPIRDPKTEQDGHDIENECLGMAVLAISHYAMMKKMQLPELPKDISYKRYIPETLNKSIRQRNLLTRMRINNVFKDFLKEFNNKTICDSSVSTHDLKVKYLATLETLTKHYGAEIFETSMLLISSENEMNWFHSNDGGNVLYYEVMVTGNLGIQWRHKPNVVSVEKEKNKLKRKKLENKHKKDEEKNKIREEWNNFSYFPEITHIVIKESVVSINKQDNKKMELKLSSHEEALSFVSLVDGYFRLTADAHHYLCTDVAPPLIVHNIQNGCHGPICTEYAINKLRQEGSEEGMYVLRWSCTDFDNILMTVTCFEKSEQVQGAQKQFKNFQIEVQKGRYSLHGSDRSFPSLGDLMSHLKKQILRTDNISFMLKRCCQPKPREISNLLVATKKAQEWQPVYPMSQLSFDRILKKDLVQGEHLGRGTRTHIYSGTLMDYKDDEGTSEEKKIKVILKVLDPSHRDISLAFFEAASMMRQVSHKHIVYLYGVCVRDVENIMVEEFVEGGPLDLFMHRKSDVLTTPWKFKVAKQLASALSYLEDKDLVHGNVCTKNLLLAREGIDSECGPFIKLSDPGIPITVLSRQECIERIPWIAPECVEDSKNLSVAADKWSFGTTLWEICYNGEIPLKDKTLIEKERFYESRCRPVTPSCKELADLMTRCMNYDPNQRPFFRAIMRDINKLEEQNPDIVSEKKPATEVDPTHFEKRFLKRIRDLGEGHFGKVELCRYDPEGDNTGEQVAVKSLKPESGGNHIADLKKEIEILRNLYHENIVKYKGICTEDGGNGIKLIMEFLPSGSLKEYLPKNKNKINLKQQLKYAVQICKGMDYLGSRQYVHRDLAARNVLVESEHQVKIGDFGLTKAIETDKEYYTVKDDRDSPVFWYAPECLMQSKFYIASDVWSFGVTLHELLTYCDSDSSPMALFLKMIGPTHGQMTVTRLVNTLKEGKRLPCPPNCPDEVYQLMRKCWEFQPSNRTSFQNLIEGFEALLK

Compound	IC50 [1]	IC50 [2]
CCc1cc(O)c(F)cc1-c1ccc2c(-c3nc4c([nH]3)CCN(Cc3ccc5ncccc5c3)C4)n[nH]c2c1	4.2 nM	1.4 nM
CCc1cc(O)c(F)cc1-c1ccc2c(-c3nc4c([nH]3)CCN(C(=O)c3ccc(C#N)nc3)CC4)n[nH]c2c1	3.4 nM	1.4 nM
